Source: US12371429B2, “Antibiotic resistance-modifying tricyclic heteroaryl compounds and uses thereof” (Recreo Pharmaceuticals LLC, priority 2018, dated 2025)
≈ marks a conversion by molar mass, not a printed value. Where two headings read alike, the source gives them in different places.

Key:
MRSA strain BAA-44 [1] = assay: Antibiotic MICs in the presence of Compound C; assay type: cell-based, Staphylococcus aureus; settings: MRSA BAA-44; in the presence of 5 mg/L Compound C
Method: (§1) General Procedure for Minimal inhibitory concentration (MIC) determination. The minimal inhibitory concentrations (MICS) of antimicrobial compounds A, B, and C were determined by the broth microdilution method detailed in the Clinical and Laboratory Standards Institute handbook (Cockerill and Clinical and Laboratory Standards Institute, Methods for Dilution Antimicrobial Susceptibility Tests for Bacteria That Grow Aerobically). All antimicrobial compounds were purchased from Sigma-Aldrich. The growth media used for all MIC experiments, except those for Enterococcus faecium, was Mueller Hinton Broth (MHB) purchased from HIMEDIA through VWR (cat: 95039-356). For experiments using Enterococcus faecium, the growth and susceptibility medium was BD Bacto™ Brain Heart Infusion (BHI) Broth purchased from VWR (cat: 90003-040). USA Scientific CytoOne 96-well Clear Tissue Culture assay plates (cat: CC7682-7596) were used for all MIC and MRC experiments. MIC assay plates were prepared by diluting the antibiotic to be tested in a 2-fold series down the assay plate. A total of 8 concentrations of each compound were tested in triplicate. Compounds were prepared in 180 μL at 2× the intended final concentrations in MHB or BHI and 2% DMSO.
(§2) The bacterial inoculum was prepared by selecting 5-7 colonies from an agar plate to make a day culture in BHI of the bacterial species to be assayed. This was grown at 37° C. for 2-4 hours. After having reached the mid-logarithmic growth phase (OD600 0.15-0.4), the day culture was diluted in the appropriate assay medium (MHB or BHI) to OD600 0.002. 100 μL of this inoculum was added to each experimental well of the 96-well assay plate resulting in an additional two-fold dilution of the bacterial culture and an initial OD600 of 0.001 in the assay plate, a final volume of 200 μL and the intended compound concentrations in 1% DMSO. MIC assay plates were then incubated at 37° C. with shaking for 18 hours.
(§3) The MICs were determined as defined in the Clinical and Laboratory Standards Institute handbook. After overnight growth, Plates were read by eye and 600 nm absorbance read using a BioTek Epoch2 Microplate Spectrophotometer (BioTek).
(§4) Determination of Antibiotic MICs in the Presence of Compound C against MRSA and MSSA. Methicillin-resistant S. aureus (MRSA) strain ATCC BAA-44 and the methicillin-sensitive S. aureus (MSSA) strain ATCC 25923 were used to determine the MIC values of various antimicrobial compounds in the presence of 5 μg/mL Compound C. […] The test antibiotics were then diluted into assay plates as described earlier. The final concentration of Compound C after inoculation with BAA-44 was 5 μg/mL. MIC values were determined by the methods described above.

MRSA strain NRS-384 [2] = assay: Antibiotic MICs in the presence of Compound C; assay type: cell-based, Staphylococcus aureus; settings: MRSA NRS-384; in the presence of 5 mg/L Compound C
Method: [The source words this procedure for another variant and reports this variant under the same test.] as §1, §2, §3, §4

MRSA strain BAA-44 [3] = assay: MIC determination, broth microdilution; assay type: cell-based, Staphylococcus aureus
Text: (§5) Bacterial strains representing pathogenic species of clinical concern, the so called ESKAPE pathogens, were selected for MIC studies using compounds A and B. The results are shown in Table A. These species are from the families or genera Enterococcus, Staphylococcus, Klebsiella, Acinetobacter, Pseudomonas, and Enterobacteriaceae. Specifically, Enterococcus faecium HM-204 and HM-460, Staphylococcus aureus strains NRS384 and COL, Klebsiella pneumoniae strains NR-48976 and NR-48977, Acinetobacter baumannii strains NR-17783 and NR-19299, Pseudomonas aeruginosa strain NR-48982 and Salmonella enterica strains NR-22067 and NR-22068 were purchased from BEI resources. Escherichia coli strain ATCC 25922, and the Staphylococcus aureus (S. aureus) strains ATCC 25923 (MSSA) and ATCC BAA-44 (MRSA) were purchased from the American Type Culture Collection (ATCC).
as §1, §2, §3

[4] = test system: Staphylococcus aureus (MRSA, NRS384); assay: MIC determination, broth microdilution; assay type: cell-based
Text: as §5, §1, §2, §3

MRSA strain ATCC 700789 [5] = assay: MIC determination, broth microdilution; assay type: cell-based, Staphylococcus aureus; settings: MRSA strain ATCC 700789 (Table C)
Method: as §1, with “Compounds were prepared in 180 μL at 2× the intended final concentrations in MHB or BHI and 2% DMSO.” left out
as §3

MRSA strain ATCC-33592 [6] = assay: MIC determination, broth microdilution; assay type: cell-based, Staphylococcus aureus; settings: MRSA strain ATCC-33592 (Table C)
Method: as §1, with “Compounds were prepared in 180 μL at 2× the intended final concentrations in MHB or BHI and 2% DMSO.” left out
as §3

MRSA strain BAA-44 [7] = assay: Minimal re-sensitizing concentration (MRC) determination; assay type: cell-based, Staphylococcus aureus
Method: (§6) Minimal re-sensitizing concentration (MRC) determination. Antibiotic MIC breakpoint values where S. aureus is considered susceptible were determined from the CLSI handbook supplement. MHB was supplemented with the antibiotic at a concentration two-fold greater than the CLSI susceptible MIC value. Two-fold serial dilutions of Compound C were prepared in antibiotic supplemented media in 96-well microplates. These were inoculated with MRSA diluted to OD600 0.002 and incubated at 37° C. with shaking for 18 hours before results were interpreted. The concentration of […] in antibiotic supplemented media at which there was no observable growth was considered the minimum re-sensitizing concentration (MRC).

MRSA strain NRS-384 [8] = assay: as above; assay type: cell-based, Staphylococcus aureus
Method: as §6

MRSA strain ATCC 700789 [9] = assay: as above; assay type: cell-based, Staphylococcus aureus
Method: as §6

MRSA strain ATCC-33592 [10] = assay: as above; assay type: cell-based, Staphylococcus aureus
Method: as §6

[11] = Staphylococcus aureus, MRSA BAA-44, in the absence of Compound C, read-out: MIC mg/L (BAA-44)
[12] = Staphylococcus aureus, MRSA NRS-384, in the absence of Compound C, read-out: MIC mg/L (NRS-384)
[13] = medium supplemented with amox/clav
[14] = medium supplemented with cefazolin

| MIC (BAA-44) (+5 mg/L Compound C) (MRSA strain BAA-44 [1]) [mg/L] | MIC (NRS-384) (+5 mg/L Compound C) (MRSA strain NRS-384 [2]) [mg/L] | MIC (MRSA strain BAA-44 [3]; [11]) [mg/L] | MIC [4, 12] [mg/L] | Compound | other results |
| --- | --- | --- | --- | --- | --- |
| >4 | <0.03125 | > 4 | 0.125 (≈ 0.294 µM) | CCC[C@@H]1C[C@@H](C(=O)N[C@@H]([C@H]2O[C@H](SC)[C@H](O)[C@@H](O)[C@H]2O)[C@H](C)Cl)N(C)C1 [Clindamycin] |  |
| <0.25 | <0.25 | 16 (≈ 41.7 µM) | 8 (≈ 20.9 µM) | C[C@@H](O)[C@H]1C(=O)N2C(C(=O)O)=C(S[C@@H]3CN[C@H](C(=O)N(C)C)C3)[C@H](C)[C@H]12 [Meropenem, reference compound] |  |
| 4 | 8 | > 256 | 256 (≈ 673 µM) | COc1cccc(OC)c1C(=O)N[C@@H]1C(=O)N2[C@@H]1SC(C)(C)[C@@H]2C(=O)O [Methicillin, reference compound] |  |
|  | <0.03125 | 1 (≈ 1.22 µM) | < 0.0312 | CO[C@H]1/C=C/O[C@@]2(C)Oc3c(C)c(O)c4c(O)c(c(/C=N/N5CCN(C)CC5)c(O)c4c3C2=O)NC(=O)/C(C)=C\C=C\[C@H](C)[C@H](O)[C@@H](C)[C@@H](O)[C@@H](C)[C@H](OC(C)=O)[C@@H]1C [Rifampicin] |  |
| >32 | 1 | > 32 | 8 (≈ 13.8 µM) | [H]/N=C(/N)N[C@H]1[C@H](O)[C@@H](O)[C@H](O[C@@H]2O[C@@H](C)[C@](O)(C=O)[C@H]2O[C@@H]2O[C@@H](CO)[C@H](O)[C@@H](O)[C@@H]2NC)[C@@H](N/C(N)=N\[H])[C@@H]1O [Streptomycin] |  |

More lines, now with the values behind:

| Compound | MIC (BAA-44) (+5 mg/L Compound C) (MRSA strain BAA-44 [1]) [mg/L] | MIC (NRS-384) (+5 mg/L Compound C) (MRSA strain NRS-384 [2]) [mg/L] | MIC (MRSA strain BAA-44 [3]; [11]) [mg/L] | MIC [4, 12] [mg/L] | other results |
| --- | --- | --- | --- | --- | --- |
| Cc1nnc(SCC2=C(C(=O)O)N3C(=O)[C@@H](NC(=O)Cn4cnnn4)[C@H]3SC2)s1 [Cefazolin, reference compound] | <2 | <2 | 128 (≈ 282 µM) | 64 (≈ 141 µM) |  |
| O=C(c1ccc(Cl)cc1)N1CCc2c([nH]c3ccc(Cl)cc23)C1 [Compound C] |  |  | > 100 | > 100 | MIC (MRSA strain ATCC 700789 [5]): > 64 µg/mL; MIC (MRSA strain ATCC-33592 [6]): 4 µg/mL (≈ 11.6 µM); MIC (MRSA strain BAA-44 [3]; MRSA strain BAA-44 (Table C)): 64 mg/L (≈ 185 µM); MRC to Amox/clav (MRSA strain BAA-44 [7]; medium supplemented with amox/clav at two-fold greater than the CLSI susceptible MIC): 4; MRC to Cefazolin (MRSA strain BAA-44 [7]; medium supplemented with cefazolin at two-fold greater than the CLSI susceptible MIC): 4; MRC to Amox/clav (MRSA strain NRS-384 [8]; [13]): 2; MRC to Cefazolin (MRSA strain NRS-384 [8]; [14]): 4; MRC to Amox/clav (MRSA strain ATCC 700789 [9]; [13]): 4; MRC to Cefazolin (MRSA strain ATCC 700789 [9]; [14]): 4; MRC to Amox/clav (MRSA strain ATCC-33592 [10]; [13]): 2; MRC to Cefazolin (MRSA strain ATCC-33592 [10]; [14]): 2; MIC ([4]; MRSA strain NRS-384 (Table C)): > 64 mg/L |
| CC(=O)NC[C@H]1CN(c2ccc(N3CCOCC3)c(F)c2)C(=O)O1 [Linezolid] | 0.5 | 1 | 1 (≈ 2.96 µM) | 2 (≈ 5.93 µM) |  |
| Cc1onc(-c2ccccc2)c1C(=O)N[C@@H]1C(=O)N2[C@@H]1SC(C)(C)[C@@H]2C(=O)O [Oxacillin, reference compound] | <2 | <2 | 64 (≈ 159 µM) | 64 (≈ 159 µM) |  |
| CN(C)[C@@H]1C(O)=C(C(N)=O)C(=O)[C@@]2(O)C(O)=C3C(=O)c4c(O)cccc4[C@@](C)(O)[C@H]3C[C@@H]12 [Tetracycline] | 4 | 4 | 16 (≈ 36 µM) | 8 (≈ 18 µM) |  |
| CN[C@H](CC(C)C)C(=O)N[C@H]1C(=O)N[C@@H](CC(N)=O)C(=O)N[C@H]2C(=O)N[C@H]3C(=O)N[C@H](C(=O)N[C@H](C(=O)O)c4cc(O)cc(O)c4-c4cc3ccc4O)[C@H](O)c3ccc(c(Cl)c3)Oc3cc2cc(c3O[C@@H]2O[C@H](CO)[C@@H](O)[C@H](O)[C@H]2O[C@H]2C[C@](C)(N)[C@H](O)[C@H](C)O2)Oc2ccc(cc2Cl)[C@H]1O [Vancomycin] | 0.5 | 0.5 |  |  | MIC (MRSA strain BAA-44 [3]; Staphylococcus aureus, read-out: MIC mg/L (BAA-44)): 1 mg/L (≈ 0.69 µM); MIC ([4]; Staphylococcus aureus, read-out: MIC mg/L (NRS-384)): 1 mg/L (≈ 0.69 µM) |
